Laboratory results as given in patent US20010007017A1, “PEPTIDES WHICH REACT WITH ANTIBODY RE[…] […] FOR HIV DISEASE PROGRESSION” (priority 1996, published 2001).

Tests used:
[1] = tested on: NTM.V Ab in sera of HIV-positive and healthy individuals; assay: ELISA IgG reactivity toward NTM peptide, non-heat-inactivated versus heat-inactivated sera; assay type: binding, human; details: compared with the same heat-inactivated sera
Protocol: The antibody binding of individual patient sera (measured by ELISA assay for heat-inactivated sera dilution 1:100) was presented by single point.
(a) Healthy individuals, and (b) HIV-positive patients.
Reactivity of sera collected from the healthy HIV-negative as well as HIV-positive individuals was examined after heat-inactivation at 40° C. and 56° C. The heat treatment of sera was performed in duration of 10, 20 and 30 minutes. Based on the obtained results (FIG. 14), it can be concluded that release of the NTM.V Ab from immune complexes is temperature and time dependent. In these experiments IgG reactivity toward two forms of the NTM peptide were monitored, i.e. uncoupled and BSA-coupled forms. The reactivity patterns of both NTM forms were similar.

[2] = tested on: natural anti-VIP antibodies in sera of HIV-negative asthma patients; details: sera of HIV-negative asthma patients with high titres of natural anti-VIP antibodies; cited from earlier work
[3] = tested on: viral infection; details: cited from earlier work

Sequence | reactivity with non-heat-inactivated sera [1] | main end-point titre for hyperimmune sera [2] | reactivity of sera with the peptide [2] | blocking of viral infection ([3]; in vivo as printed) | effect on lymphocyte function ([3]; in vivo)
RSANFTDNAKTIIVQLNESVEIN [NTM, HIV-1 gp120-derived natural peptide] | very low reactivity | 1/10000 | strong reactivity | – | –
VVVRSLTFKTNKKT | – | – | – | effectively blocks viral infection | without impairing lymphocyte function
